These results are taken from patent publication US12318388B2, “Pyrimidine derivatives for prevention and treatment of gram-negative bacterial infection, contamination and fouling” (UNIVERSITÉ DE LIÈGE, priority 2019, dated 2025).

Test [1] concerns Escherichia coli (ATCC 8739). As to the kind of experiment: Minimal Inhibitory Concentration (MIC) on Escherichia coli with or without PMBN, OD600 after O/N growth. It counts as cell-based. To be noted: for Minimal inhibitory concentration With PMBN / MIC: E. coli (ATCC 8739); for Minimal inhibitory concentration With PMBN: together with PMBN at 40 μg/ml; for MIC: molecule alone. How it is done:
The Minimal Inhibitory Concentration (MIC) of molecules 2329, 2412, 2452 and 2461 together with polymyxin B nonapeptide (PMBN) was determined on Escherichia coli (ATCC 8739) according to EUCAST (European Committee on Antimicrobial Susceptibility Testing) recommendations.
(§1) Briefly, a single colony grown on a Luria-Bertani Agar (LB) plate was resuspended and cultured in the LB medium overnight (O/N) in aerobic conditions (37° C. with 220 rpm shaking), next day a 1:50 inoculum in Mueller-Hinton broth (MHB) was incubated in aerobic conditions for 1h30 (OD=0.08-0.1) and an inoculum of 1:300 dilution, corresponding to 3×10^6 CFU/ml, was incubated in presence or absence of different concentrations of the molecules in 1% DMSO (vehicle) with or without Polymyxin B nonapeptide (PMBN) at 40 μg/ml. After O/N growth the OD of each culture was measured at 600 nm in a spectrophotometer (OD600). The MIC represents the concentration at which there is no visible growth of bacteria, i.e. ΔOD at 600 nm equal to zero wherein ΔOD is the difference between the resulting optical density (OD) with the molecule together with PMBN, and the optical density (OD) of the blank (blank is the medium) alone.
(§2) A single colony grown on an Lurian-Bertani (LB) agar plate is resuspended and cultured in LB medium overnight (O/N) in aerobic conditions (37° C. with 220 rpm shaking), next day a 1:50 inoculum in Mueller-Hinton broth (MHB) is incubated in aerobic conditions for 1h30 (OD=0.08-0.1) and an inoculum of 1:300 dilution, corresponding to 3×10^6 CFU/ml, is incubated in presence or absence of different concentrations of the tested molecules in 1% DMSO (vehicle) with or without PMBN at 40 μg/ml. After O/N growth the OD of each culture was measured at 600 nm (OD600) in a spectrophotometer (Victor 3-Perkin Elmer). The MIC represents the concentration at which there is no visible growth of bacteria, i.e. ΔOD at 600 nm equal to zero wherein ΔOD is the difference between the resulting optical density (OD) with the molecule together with PMBN, and the optical density (OD) of the blank (blank is the medium) alone.
as §1, with “cultured in LB medium” for “cultured in the LB medium”, “of the above-mentioned molecules in” for “of the molecules in”
as §2, with “a Luria-Bertani” for “an Lurian-Bertani”, “above-mentioned pyrazolopyrimidine molecule” for “tested molecules”, “alone. […]” for “alone.”

Test [2] concerns Pseudomonas aeruginosa (ATCC27853). Kind of test: Minimal Inhibitory Concentration (MIC) on Pseudomonas aeruginosa with or without PMBN. The test is classed as cell-based. To be noted: Pseudomonas aeruginosa (ATCC 27853); for Minimal inhibitory concentration without PMBN: molecule alone; for Minimal inhibitory concentration With PMBN: together with PMBN at 0.5 μg/ml. How it is done:
A single colony grown on an tryptic soy agar plate is resuspended and cultured in tryptic soy broth medium overnight (O/N) in aerobic conditions (37° C. with 220 rpm shaking), next day a 1:100 inoculum in Mueller-Hinton broth (MHB) is incubated in aerobic conditions for 3h (OD=0.5-0.6) and an inoculum of 1:1000 dilution, corresponding to 1-3×10^5 CFU/ml, is incubated in presence or absence of different concentrations of the tested molecules in 1% DMSO (vehicle) with or without PMBN at 0.5 μg/ml. After 28-30h growth the OD of each culture was measured at 600 nm (OD600) in a spectrophotometer (Victor 3-Perkin Elmer). The MIC represents the concentration at which there is no visible growth of bacteria, i.e. ΔOD at 600 nm equal to zero (blank is the medium alone) wherein ΔOD is the difference between the resulting optical density (OD) with the molecule together with PMBN, and the optical density (OD) of the blank (blank is the medium) alone.

Where [3] appears, read: 100 μM together with 40 μg/ml PMBN.
Setting [4] is: with 10 to 50 µg/ml PMBN, particularly 40 μg/ml.

Values after ≈ are worked out from the molar mass of the structure shown. Bounds are passed on as bounds.

As to `CCCCOc1nc(NC2CC2)c2ncn(Cc3c(F)ccc(C)c3F)c2n1` [molecule 38z″, 2-Butoxy-N-cyclopropyl-9-(2,6-difluoro-3-methylbenzyl)-9H-purin-6-amine, reference compound], in test [1], the “Antibacterial activity against E. coli (ATCC8739)” value (“Antibacterial activity” below) is “no antibacterial activity” and the “Minimal inhibitory concentration With PMBN” value is over 100 µM. For the same compound, in test [1] (setting [3]), the “OD600 nm after O/N growth of Escherichia coli (FIG. 4)” value (“OD600 nm after O/N growth” below) is recorded as “did not differ from vehicle control”. Also, the “Activity against Escherichia coli (ATCC 8739), conclusion” value (“Activity against Escherichia coli” for short) in test [1] (setting [4]) is on record as “no antibacterial activity”.

For `CCCCOc1nc(NCc2ccccc2)c2ncn(Cc3c(F)ccc(C)c3F)c2n1` [molecule 39z″, N-Benzyl-2-butoxy-9-(2,6-difluoro-3-methylbenzyl)-9H-purin-6-amine, reference compound], in test [1], the “Antibacterial activity” value is reported as “no antibacterial activity” and the “Minimal inhibitory concentration With PMBN” value was over 100 µM. In addition, in test [1] (setting [3]), the “OD600 nm after O/N growth” value is on record as “did not differ from vehicle control”. Moreover, the “Activity against Escherichia coli” value in test [1] (setting [4]) is recorded as “no antibacterial activity”.

Turning to `CCCCCOc1nc(NCc2ccccc2)c2ncn(Cc3c(F)ccc(C)c3F)c2n1` [molecule 40z″, N-benzyl-9-(2,6-difluoro-3-methylbenzyl)-2(pentyloxy)-9H-purin-6-amine, reference compound], in test [1], the “Antibacterial activity” value is “no antibacterial activity” and the “Minimal inhibitory concentration With PMBN” value is over 100 µM. Besides, the “OD600 nm after O/N growth” value in test [1] (setting [3]) was “did not differ from vehicle control”. Further, the “Activity against Escherichia coli” value in test [1] (setting [4]) is “no antibacterial activity”.

`CCCCSc1nc(NCc2c(F)ccc(C)c2F)c2ncn(Cc3c(F)ccc(C)c3F)c2n1` [molecule 41z″, 2-(Butylthio)-N,9-bis(2,6-difluoro-3-methylbenzyl)-9H-purin-6-amine, reference compound]: in test [1], the “Antibacterial activity” value was “no antibacterial activity” and the “Minimal inhibitory concentration With PMBN” value is over 100 µM. Also, the “OD600 nm after O/N growth” value in test [1] (setting [3]) was “did not differ from vehicle control”. In addition, the “Activity against Escherichia coli” value in test [1] (setting [4]) is recorded as “no antibacterial activity”.

Turning to `C=CCn1cnc2c(N[C@@H]3C[C@H]3c3ccc(F)c(F)c3)nc(SCCC)nc21` [molecule 2412, 9-allyl-N-((1R,2S)-2-(3,4-difluorophenyl)cyclopropyl)-2-(propylthio)-9H-purin-6-amine], in test [1], the minimum inhibitory concentration (MIC) – broadly, the lowest concentration that inhibits growth of the organism – is on record as over 100 µM and the “Minimal inhibitory concentration With PMBN” value is 50 µM (≈ 20.1 µg/mL). In test [1] (Escherichia coli, ATCC8739), this compound registered an MIC of over 100 µM. Besides, in test [2], the “Minimal inhibitory concentration without PMBN” value was over 100 µM and the “Minimal inhibitory concentration With PMBN” value worked out at 50 µM (≈ 20.1 µg/mL).

For `C#CCn1cnc2c(N[C@@H]3C[C@H]3c3ccc(F)c(F)c3)nc(SCCC)nc21` [molecule 2452, N-((1R,2S)-2-(3,4-difluorophenyl)cyclopropyl)-9-(prop-2-yn-1-yl)-2-(propylthio)-9H-purin-6-amine], in test [1], the MIC is over 100 µM and the “Minimal inhibitory concentration With PMBN” value was 10 µM (≈ 3.99 µg/mL). In test [1] (Escherichia coli, ATCC8739), the MIC is over 100 µM. In addition, in test [2], the “Minimal inhibitory concentration without PMBN” value is over 100 µM and the “Minimal inhibitory concentration With PMBN” value turned out to be 50 µM (≈ 20 µg/mL).

Regarding `CCCSc1nc(N[C@@H]2C[C@H]2c2ccc(F)c(F)c2)c2ncn([C@@H]3C[C@H](O)[C@@H](O)[C@H]3O)c2n1` [molecule 2461, (1S,2R,3S,4R)-4-(6-(((1R,2S)-2-(3,4-difluorophenyl)cyclopropyl)amino)-2-(propylthio)-9H-purin-9-yl)cyclopentane-1,2,3-triol], in test [1] (20 μM with 40 μg/ml PMBN), the “OD600 nm after O/N growth” value is given as “killed all bacteria”. For the same compound, in test [1], the MIC is recorded as over 100 µM and the “Minimal inhibitory concentration With PMBN” value turned out to be 10 µM (≈ 4.78 µg/mL). Besides, the MIC in test [1] (Escherichia coli, ATCC8739) was over 100 µM. Further, in test [1] (with 40 μg/ml PMBN), the “Activity against Escherichia coli” value is “bactericidal activity”. In addition, in test [2], the “Minimal inhibitory concentration without PMBN” value is over 100 µM and the “Minimal inhibitory concentration With PMBN” value was found to be 50 µM (≈ 23.9 µg/mL).

As for `CCn1cnc2c(N[C@@H]3C[C@H]3c3ccc(F)c(F)c3)nc(SC)nc21` [molecule 2511, N-((1R,2S)-2-(3,4-difluorophenyl)cyclopropyl)-9-ethyl-2-(methylthio)-9H-purin-6-amine], the “OD600 nm after O/N growth” value in test [1] (50 μM with 40 μg/ml PMBN) is listed as “killed all bacteria”. For the same compound, in test [1], the MIC was over 100 µM and the “Minimal inhibitory concentration With PMBN” value was 50 µM (≈ 18.1 µg/mL). The MIC in test [1] (Escherichia coli, ATCC8739) is over 100 µM. Also, the “Activity against Escherichia coli” value in test [1] (with 40 μg/ml PMBN) was “bactericidal activity”.

In the case of `CCSc1nc(N[C@@H]2C[C@H]2c2ccc(F)c(F)c2)c2ncn(C)c2n1` [molecule 2525, N-((1R,2S)-2-(3,4-difluorophenyl)cyclopropyl)-2-(ethylthio)-9-methyl-9H-purin-6-amine], the “OD600 nm after O/N growth” value in test [1] (50 μM with 40 μg/ml PMBN) is reported as “killed all bacteria”. The minimum inhibitory concentration (MIC) was over 100 µM in test [1] and over 100 µM in test [1] (Escherichia coli, ATCC8739). In test [1], the “Minimal inhibitory concentration With PMBN” value worked out at 50 µM (≈ 18.1 µg/mL). In addition, the “Activity against Escherichia coli” value in test [1] (with 40 μg/ml PMBN) is “bactericidal activity”.

For `CSc1nc(N[C@@H]2C[C@H]2c2ccc(F)c(F)c2)c2cnn(C)c2n1` [molecule 2539, N-((1R,2S)-2-(3,4-difluorophenyl)cyclopropyl)-1-methyl-6-(methylthio)-1H-pyrazolo[3,4-d]pyrimidin-4-amine], in test [1] (50 μM with 40 μg/ml PMBN), the “OD600 nm after O/N growth” value is given as “killed all bacteria”. In addition, in test [1], the MIC was over 100 µM and the “Minimal inhibitory concentration With PMBN” value worked out at 25 µM (≈ 8.68 µg/mL). Besides, the MIC in test [1] (Escherichia coli, ATCC8739) is over 100 µM. Further, the “Activity against Escherichia coli” value in test [1] (with 40 μg/ml PMBN) was “bactericidal activity”.

Take `CCCCSc1nc(N[C@@H]2C[C@H]2c2ccc(F)c(F)c2)c2ncn(C)c2n1` [molecule 2833, 2-(butylthio)-N-((1R,2S)-2-(3,4-difluorophenyl)cyclopropyl)-9-methyl-9H-purin-6-amine]: the MIC in test [1] is over 100 µM; in test [1] (Escherichia coli, ATCC8739) it was over 100 µM. In test [1], the “Minimal inhibitory concentration With PMBN” value was determined as 90 µM (≈ 35.1 µg/mL).
